{
  "source": "patent US10945932B2",
  "about": "“Prebiotic oral care compositions containing carboxylic acids” (COLGATE-PALMOLIVE COMPANY, priority 2013, dated 2021)",
  "key": {"Streptococcus sobrinus": {"test_system": "Streptococcus sobrinus", "settings": "S sobrinus, BHI", "description": "(§2) Late exponential growth phase liquid cultures were prepared by transferring the respective bacterium from blood agar plates to BHI and overnight incubation at 37° C. in an anaerobic atmosphere for A. viscosus, V. parvula, F. nucleatum, P. gingivalis, P. intermedia, T forsythia, A. naeslundii, and C. sputigena, and in a 5% CO2 environment for S. salivarius, S. sanguinis, S. mitis, A. actinomycetemcomitans, S. mutans, S. sobrinus and S. gordonii. Overnight cultures were transferred to BHI and adjusted to a concentration of 1×10^7 CFU/ml (colony forming units per ml) by measuring the optical density at 600 nm (OD600) (BioRad SmartSpec 3000). For each strain, 200 μl of the bacterial suspension was added to a 96-well plate containing 20 μl of the respective carboxylic acids. Final concentrations of the carboxylic acids were set to 5, 10, 20 and 25 μmol/ml. […] Plates were incubated as previously described.\n(§3) For each combination of bacterium/carboxylic acid, and for each of their respective controls (i.e. the particular bacterium in the nutritionally rich medium with no carboxylic acid), the optical density was measured at 630 nm (OD630) at 0 h, 24 h and 48 h (Thermo Scientific Multiskan Ascent). Additionally, the OD630 for combinations of bacterium/carboxylic acid grown in a 5% CO2 environment were also measured every hour between 0 h and 9 h.\n(§4) The experiment was carried out on three different days (thus providing 3 biological replicas) and on each day the experiment was carried out in quadruple (thus providing 4 technical replicas) for each combination of bacterium with carboxylic acid and for each control. For each day and for each combination, the average (mean) of the values obtained (as detailed above) for the four technical replicas was calculated to provide a single value for each combination on each day."}, "Streptococcus gordonii [1]": {"test_system": "Streptococcus gordonii", "settings": "S gordonii, BHI", "description": "as §2, §3, §4"}, "[2]": {"test_system": "beneficial oral bacteria and pathogenic oral bacteria", "experiment": "Biofilm growth, prebiotic effect over the whole panel", "assay_type": "cell-based", "settings": "25 μmol/ml; 48 hours; threshold value of 1.6", "experimental": "(§1) Late exponential growth phase liquid cultures were prepared by transferring the respective bacterium from blood agar plates to BHI and overnight incubation at 37° C. in an anaerobic atmosphere for A. viscosus, V. parvula, F. nucleatum, P. gingivalis, P. intermedia, T. forsythia, A. naeslundii, and C. sputigena, and in a 5% CO2 environment for S. salivarius, S. sanguinis, S. mitis, A. actinomycetemcomitans, S. mutans, and S. gordonii. […] Additionally, for each bacterium tested, a background control, to correct for background staining, was added. This background control contained the bacterium tested and 0.03 weight % chlorhexidine, as an antiseptic. Plates were incubated as previously described. After 48 hrs the supernatant was removed from the wells of the plates. The wells were washed twice with 1×100 μL/PBS (phosphate buffered saline), fixed for 20 minutes with 96% vol. ethanol (96% vol. solution in water) and the biofilm retained at the bottom of the wells was stained with 1 weight % crystal violet (1 weight % solution in water). […] Quantification of the stained biofilm was performed by measuring the absorbance at 630 nm using a Multiskan Ascent microplate reader (Thermo Scientific)."}, "Streptococcus mitis [3]": {"test_system": "Streptococcus mitis", "settings": "S mitis, BHI", "description": "as §2, §3, §4"}, "Veillonella parvula": {"test_system": "Veillonella parvula", "settings": "V parvula, BHI", "description": "as §2, §3, §4"}, "Porphyromonas gingivalis [4]": {"test_system": "Porphyromonas gingivalis", "settings": "P gingivalis, BHI", "description": "as §2, §3, §4"}, "Streptococcus mitis [5]": {"test_system": "Streptococcus mitis", "experiment": "Biofilm growth assay in BHI, crystal violet", "assay_type": "cell-based", "settings": "S mitis", "experimental": "as §1"}, "Streptococcus sanguinis": {"test_system": "Streptococcus sanguinis", "experiment": "Biofilm growth assay in BHI, crystal violet", "assay_type": "cell-based", "settings": "S sanguinis", "experimental": "as §1"}, "Tannerella forsythia": {"test_system": "Tannerella forsythia", "experiment": "Biofilm growth assay in BHI, crystal violet", "assay_type": "cell-based", "settings": "T forsythia", "experimental": "as §1"}, "Porphyromonas gingivalis [6]": {"test_system": "Porphyromonas gingivalis", "experiment": "Biofilm growth assay in BHI, crystal violet", "assay_type": "cell-based", "settings": "P gingivalis", "experimental": "as §1"}, "Actinomyces naeslundii": {"test_system": "Actinomyces naeslundii", "experiment": "Biofilm growth assay in BHI, crystal violet", "assay_type": "cell-based", "settings": "A naeslundii", "experimental": "as §1"}, "Streptococcus gordonii [7]": {"test_system": "Streptococcus gordonii", "experiment": "Biofilm growth assay in BHI, crystal violet", "assay_type": "cell-based", "settings": "S gordonii, 5 μmol/ml", "experimental": "as §1"}},
  "note": "Where two headings read alike, the source gives them in different places.",
  "data": [
    {"smiles": "N[C@@H](CC(=O)O)C(=O)O", "note": "[L-aspartic acid]", "values": [
      {"measurement": "extent of growth, maximal OD630 over 48 hr divided by maximal OD of control (control = 1)", "setting": "Streptococcus sobrinus; 5 μmol/ml", "value": 0.9714},
      {"measurement": "extent of growth, maximal OD630 over 48 hr divided by maximal OD of control (control = 1)", "setting": "Streptococcus sobrinus; 10 μmol/ml", "value": 0.9741},
      {"measurement": "extent of growth, maximal OD630 over 48 hr divided by maximal OD of control (control = 1)", "setting": "Streptococcus sobrinus; 20 μmol/ml", "value": 0.9458},
      {"measurement": "extent of growth, maximal OD630 over 48 hr divided by maximal OD of control (control = 1)", "setting": "Streptococcus sobrinus; 25 μmol/ml", "value": 0.9644},
      {"measurement": "extent of growth, maximal OD630 over 48 hr divided by maximal OD of control (control = 1)", "setting": "Streptococcus gordonii [1]; 5 μmol/ml", "value": 0.9448},
      {"measurement": "extent of growth, maximal OD630 over 48 hr divided by maximal OD of control (control = 1)", "setting": "Streptococcus gordonii [1]; 10 μmol/ml", "value": 0.9400},
      {"measurement": "extent of growth, maximal OD630 over 48 hr divided by maximal OD of control (control = 1)", "setting": "Streptococcus gordonii [1]; 20 μmol/ml", "value": 0.9583},
      {"measurement": "extent of growth, maximal OD630 over 48 hr divided by maximal OD of control (control = 1)", "setting": "Streptococcus gordonii [1]; 25 μmol/ml", "value": 0.9466},
      {"measurement": "prebiotic effect (biofilm growth)", "setting": "[2]", "value": "exhibited prebiotic effects"},
      {"measurement": "extent of growth, maximal OD630 over 48 hr divided by maximal OD of control (control = 1)", "setting": "Streptococcus mitis [3]; 5 μmol/ml", "value": 1.2333},
      {"measurement": "extent of growth, maximal OD630 over 48 hr divided by maximal OD of control (control = 1)", "setting": "Streptococcus mitis [3]; 10 μmol/ml", "value": 1.2959},
      {"measurement": "extent of growth, maximal OD630 over 48 hr divided by maximal OD of control (control = 1)", "setting": "Streptococcus mitis [3]; 20 μmol/ml", "value": 1.2536},
      {"measurement": "extent of growth, maximal OD630 over 48 hr divided by maximal OD of control (control = 1)", "setting": "Streptococcus mitis [3]; 25 μmol/ml", "value": 1.1257},
      {"measurement": "extent of growth, maximal OD630 over 48 hr divided by maximal OD of control (control = 1)", "setting": "Veillonella parvula; 5 μmol/ml", "value": 1.0851},
      {"measurement": "extent of growth, maximal OD630 over 48 hr divided by maximal OD of control (control = 1)", "setting": "Veillonella parvula; 10 μmol/ml", "value": 1.1168},
      {"measurement": "extent of growth, maximal OD630 over 48 hr divided by maximal OD of control (control = 1)", "setting": "Veillonella parvula; 20 μmol/ml", "value": 1.1378},
      {"measurement": "extent of growth, maximal OD630 over 48 hr divided by maximal OD of control (control = 1)", "setting": "Veillonella parvula; 25 μmol/ml", "value": 1.1498},
      {"measurement": "extent of growth, maximal OD630 over 48 hr divided by maximal OD of control (control = 1)", "setting": "Porphyromonas gingivalis [4]; 5 μmol/ml", "value": 1.0608},
      {"measurement": "extent of growth, maximal OD630 over 48 hr divided by maximal OD of control (control = 1)", "setting": "Porphyromonas gingivalis [4]; 10 μmol/ml", "value": 1.0376},
      {"measurement": "extent of growth, maximal OD630 over 48 hr divided by maximal OD of control (control = 1)", "setting": "Porphyromonas gingivalis [4]; 20 μmol/ml", "value": 1.0578},
      {"measurement": "extent of growth, maximal OD630 over 48 hr divided by maximal OD of control (control = 1)", "setting": "Porphyromonas gingivalis [4]; 25 μmol/ml", "value": 1.0084},
      {"measurement": "biofilm growth, OD at 630 nm (crystal violet) at 48 hrs divided by OD of control (control = 1)", "setting": "Streptococcus mitis [5]; 5 μmol/ml", "value": 1.5188},
      {"measurement": "biofilm growth, OD at 630 nm (crystal violet) at 48 hrs divided by OD of control (control = 1)", "setting": "Streptococcus mitis [5]; 10 μmol/ml", "value": 1.6156},
      {"measurement": "biofilm growth, OD at 630 nm (crystal violet) at 48 hrs divided by OD of control (control = 1)", "setting": "Streptococcus mitis [5]; 20 μmol/ml", "value": 1.5402},
      {"measurement": "biofilm growth, OD at 630 nm (crystal violet) at 48 hrs divided by OD of control (control = 1)", "setting": "Streptococcus mitis [5]; 25 μmol/ml", "value": 1.7351},
      {"measurement": "biofilm growth, OD at 630 nm (crystal violet) at 48 hrs divided by OD of control (control = 1)", "setting": "Streptococcus sanguinis; 5 μmol/ml", "value": 1.5035},
      {"measurement": "biofilm growth, OD at 630 nm (crystal violet) at 48 hrs divided by OD of control (control = 1)", "setting": "Streptococcus sanguinis; 10 μmol/ml", "value": 1.7477},
      {"measurement": "biofilm growth, OD at 630 nm (crystal violet) at 48 hrs divided by OD of control (control = 1)", "setting": "Streptococcus sanguinis; 20 μmol/ml", "value": 2.0414},
      {"measurement": "biofilm growth, OD at 630 nm (crystal violet) at 48 hrs divided by OD of control (control = 1)", "setting": "Streptococcus sanguinis; 25 μmol/ml", "value": 2.0560},
      {"measurement": "biofilm growth, OD at 630 nm (crystal violet) at 48 hrs divided by OD of control (control = 1)", "setting": "Tannerella forsythia; 5 μmol/ml", "value": 1.0369},
      {"measurement": "biofilm growth, OD at 630 nm (crystal violet) at 48 hrs divided by OD of control (control = 1)", "setting": "Tannerella forsythia; 10 μmol/ml", "value": 0.9131},
      {"measurement": "biofilm growth, OD at 630 nm (crystal violet) at 48 hrs divided by OD of control (control = 1)", "setting": "Tannerella forsythia; 20 μmol/ml", "value": 1.0055},
      {"measurement": "biofilm growth, OD at 630 nm (crystal violet) at 48 hrs divided by OD of control (control = 1)", "setting": "Tannerella forsythia; 25 μmol/ml", "value": 0.9659},
      {"measurement": "biofilm growth, OD at 630 nm (crystal violet) at 48 hrs divided by OD of control (control = 1)", "setting": "Porphyromonas gingivalis [6]; 5 μmol/ml", "value": 0.9713},
      {"measurement": "biofilm growth, OD at 630 nm (crystal violet) at 48 hrs divided by OD of control (control = 1)", "setting": "Porphyromonas gingivalis [6]; 10 μmol/ml", "value": 0.9936},
      {"measurement": "biofilm growth, OD at 630 nm (crystal violet) at 48 hrs divided by OD of control (control = 1)", "setting": "Porphyromonas gingivalis [6]; 20 μmol/ml", "value": 1.0779},
      {"measurement": "biofilm growth, OD at 630 nm (crystal violet) at 48 hrs divided by OD of control (control = 1)", "setting": "Porphyromonas gingivalis [6]; 25 μmol/ml", "value": 0.9307},
      {"measurement": "biofilm growth, OD at 630 nm (crystal violet) at 48 hrs divided by OD of control (control = 1)", "setting": "Actinomyces naeslundii; 5 μmol/ml", "value": 1.1735},
      {"measurement": "biofilm growth, OD at 630 nm (crystal violet) at 48 hrs divided by OD of control (control = 1)", "setting": "Actinomyces naeslundii; 10 μmol/ml", "value": 1.2585},
      {"measurement": "biofilm growth, OD at 630 nm (crystal violet) at 48 hrs divided by OD of control (control = 1)", "setting": "Actinomyces naeslundii; 20 μmol/ml", "value": 1.2309},
      {"measurement": "biofilm growth, OD at 630 nm (crystal violet) at 48 hrs divided by OD of control (control = 1)", "setting": "Actinomyces naeslundii; 25 μmol/ml", "value": 1.1175},
      {"measurement": "biofilm growth, OD at 630 nm (crystal violet) at 48 hrs divided by OD of control (control = 1)", "setting": "Streptococcus gordonii [7]", "value": 1.3455}
    ]}
  ]
}
